{"source": "paper PMC9572621", "about": "“Fe(III) and Cu(II) Complexes of Chlorogenic Acid: Spectroscopic, Thermal, Anti-/Pro-Oxidant, and Cytotoxic Studies” (Materials, 2022)", "key": {"[1]": {"set-up": "method as in PMID 15246878", "settings": "read-out: IC50, inhibition of the superoxide-driven reduction of NBT by 50%; flavonoid:metal ion ratio 1:1 for complexes; cited from earlier work"}, "[2]": {"settings": "radical assay not named at the place (ABTS•+/DPPH• scavenging discussed); read-out: EC50 (antioxidant); cited from earlier work"}, "MTS cell viability assay": {"assay": "MTS cell viability assay", "assay_type": "cell-based", "settings": "human, HaCaT keratinocyte cells, 1000 nM"}, "[3]": {"settings": "cited from earlier work"}, "Candida albicans": {"test_system": "Candida albicans", "set-up": "method as in doi:10.15199/62.2017.11.9, PMID 25209896", "settings": "cited from earlier work"}, "Staphylococcus aureus": {"test_system": "Staphylococcus aureus", "set-up": "method as in doi:10.15199/62.2017.11.9, PMID 26528244, PMID 24228999", "settings": "cited from earlier work"}, "[4]": {"test_system": "Stenotrophomonas maltophilia", "set-up": "method as in doi:10.15199/62.2017.11.9, PMID 25209896", "settings": "cited from earlier work"}, "[5]": {"set-up": "method as in PMID 29401704", "settings": "compound 5 μM; cited from earlier work"}}, "data": [{"smiles": "C[C@@H]1O[C@@H](OC[C@H]2O[C@@H](Oc3c(-c4ccc(O)c(O)c4)oc4cc(O)cc(O)c4c3=O)[C@H](O)[C@@H](O)[C@@H]2O)[C@H](O)[C@H](O)[C@H]1O", "note": "[rutin]", "values": [{"measurement": "IC50", "setting": "[1]", "value": 9, "unit": "µM"}]}, {"smiles": "O=C1O[C@H]([C@@H](O)CO)C(O)=C1O", "note": "[L-ascorbic acid]", "values": [{"measurement": "EC50", "setting": "[2]", "value": "10.3 ± 0.98", "unit": "µM"}]}, {"smiles": "O=C(/C=C/c1ccc(O)c(O)c1)O[C@@H]1C[C@](O)(C(=O)O)C[C@@H](O)[C@H]1O", "note": "[5-CQA, 5-caffeoylquinic acid]", "values": [{"measurement": "viability at 24 h, 1 µM", "setting": "MTS cell viability assay", "value": "101 ± 4.5", "unit": "%"}, {"measurement": "pKa1 (COOH)", "setting": "[3]", "value": 3.35}, {"measurement": "pKa2", "setting": "[3]", "value": 8.30}, {"measurement": "pKa3 (OH in the meta position)", "setting": "[3]", "value": 12.06}, {"measurement": "MIC", "setting": "Candida albicans", "value": 80, "unit": "µg/mL"}, {"measurement": "MIC", "setting": "Staphylococcus aureus", "value": 500, "unit": "µg/mL"}, {"measurement": "activity against Stenotrophomonas maltophilia", "setting": "[4]", "value": "shows activity"}]}, {"smiles": "O=C(C=Cc1ccc(O)c(O)c1)OC1CC(O)(C(=O)[O-])CC(O)C1O.[Li+]", "note": "(stereo not shown) [CQA/Li]", "values": [{"measurement": "FRAP activity", "setting": "[5]", "value": 106.92, "unit": "µM Fe^2+"}]}]}
